In patent US9169254B2, “Spiroimidazolone derivative” (Chugai Seiyaku Kabushiki Kaisha, priority 2009, dated 2015):

These molecules were tested against T1, human PTH1 receptor (Homo sapiens, UniProt Q03431) (assay: In vitro cAMP signal activity in HKRK-B7 cells (LLC-PK1 cells overexpressing the human PTH1 receptor)). Conditions: HKRK-B7 cells; compound at 1×10^−3 M; cAMP produced as percentage of that produced by hPTH(1-34) at 100 nM.
T1 sequence (Q03431 27-593): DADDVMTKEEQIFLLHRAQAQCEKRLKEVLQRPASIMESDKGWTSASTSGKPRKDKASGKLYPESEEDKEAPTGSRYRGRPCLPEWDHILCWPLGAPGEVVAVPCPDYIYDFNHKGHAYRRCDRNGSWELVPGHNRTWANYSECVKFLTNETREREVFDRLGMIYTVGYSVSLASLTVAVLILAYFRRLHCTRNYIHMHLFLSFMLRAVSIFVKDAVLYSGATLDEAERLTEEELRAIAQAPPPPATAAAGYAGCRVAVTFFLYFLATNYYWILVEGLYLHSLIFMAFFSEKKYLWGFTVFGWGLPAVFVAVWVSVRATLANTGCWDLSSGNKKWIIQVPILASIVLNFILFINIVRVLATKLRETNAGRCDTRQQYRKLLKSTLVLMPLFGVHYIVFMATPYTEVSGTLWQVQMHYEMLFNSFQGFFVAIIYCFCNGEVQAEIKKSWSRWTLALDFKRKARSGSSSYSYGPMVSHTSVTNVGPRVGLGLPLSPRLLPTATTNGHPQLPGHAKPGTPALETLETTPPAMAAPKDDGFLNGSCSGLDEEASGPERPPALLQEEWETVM
Type: cell-based

| cAMP production activity (%) | SMILES |
| --- | --- |
| 80 | CC(=O)N(C)c1cc(C)c(/C=C/S(=O)(=O)N2CCC3(CC2)N=C(c2cccc(OC(F)(F)F)c2)NC3=O)c(C)c1 [Compound 239, N-(3,5-dimethyl-4-{(E)-2-[4-oxo-2-(3-trifluoromethoxy-phenyl)-1,3,8-triaza-spiro[4.5]dec-1-ene-8-sulfonyl]-vinyl}-phenyl)-N-methyl-acetamide] |
| 41 | Nc1cccc(CCCS(=O)(=O)N2CCC3(CC2)N=C(C2CCCCC2)NC3=O)c1 [Compound 328, 8-[3-(3-Amino-phenyl)-propane-1-sulfonyl]-2-cyclohexyl-1,3,8-triaza-spiro[4.5]dec-1-en-4-one] |
| 42 | CC(=O)N(CC1(C)COC1)c1cc(C)c(/C=C/S(=O)(=O)N2CCC3(CC2)N=C(C2CCCCC2)NC3=O)c(C)c1 [Compound 574, N-{4-[(E)-2-(2-cyclohexyl-4-oxo-1,3,8-triaza-spiro[4.5]dec-1-ene-8-sulfonyl)-vinyl]-3,5-dimethyl-phenyl}-N-(3-methyl-oxetan-3-ylmethyl)-acetamide] |
| 88 | Cc1cc(N(C)C(N)=O)cc(C)c1CCS(=O)(=O)N1CCC2(CC1)N=C(CCCCCCCCCCC1(C)COC1)NC2=O [Compound 1032, 1-[3,5-dimethyl-4-(2-{2-[10-(3-methyl-oxetan-3-yl)-decyl]-4-oxo-1,3,8-triaza-spiro[4.5]dec-1-ene-8-sulfonyl}-ethyl)-phenyl]-1-methyl-urea] |
| 55 | O=C1NC(C2CCCCC2)=NC12CCN(S(=O)(=O)c1ccc(Cl)s1)CC2 [Compound 55, 8-(5-chloro-thiophene-2-sulfonyl)-2-cyclohexyl-1,3,8-triaza-spiro[4.5]dec-1-en-4-one] |
| 98 | CCC[C@@H]1CCC[C@H](C2=NC3(CCN(S(=O)(=O)CCc4c(C)cc(N(C)C(N)=O)cc4C)CC3)C(=O)N2)C1 [Compound 1343, 1-(3,5-dimethyl-4-{2-[4-oxo-2-((1S,3R)-3-propyl-cyclohexyl)-1,3,8-triaza-spiro[4.5]dec-1-ene-8-sulfonyl]-ethyl}-phenyl)-1-methyl-urea] |
| 71 | O=C1NC(C2CCC(CCC(F)(F)F)CC2)=NC12CCN(S(=O)(=O)CCc1cccc3c1ccn3C[C@@H](O)CO)CC2 (stereo partly drawn) [Compound 867, 8-{2-[1-((R)-2,3-dihydroxy-propyl)-1H-indol-4-yl]-ethanesulfonyl}-2-[4-(3,3,3-trifluoro-propyl)-cyclohexyl]-1,3,8-triaza-spiro[4.5]dec-1-en-4-one] |
| 97 | Cc1cc(C(=O)N2CCN(CCOCCO)CC2)ccc1CCS(=O)(=O)N1CCC2(CC1)N=C(c1cccc(C(F)(F)F)c1)NC2=O [Compound 362, 8-[2-(4-{4-[2-(2-hydroxy-ethoxy)-ethyl]-piperazine-1-carbonyl}-2-methyl-phenyl)-ethanesulfonyl]-2-(3-trifluoromethyl-phenyl)-1,3,8-triaza-spiro[4.5]dec-1-en-4-one] |
| 114 | Cc1cc(C(=O)N2CCC(C)(O)CC2)cc(C)c1CCS(=O)(=O)N1CCC2(CC1)N=C(c1ccc(OC(F)(F)F)cc1)NC2=O [Compound 1234, 8-{2-[4-(4-hydroxy-4-methyl-piperidine-1-carbonyl)-2,6-dimethyl-phenyl]-ethanesulfonyl}-2-(4-trifluoromethoxy-phenyl)-1,3,8-triaza-spiro[4.5]dec-1-en-4-one] |
| 2.6 | CC1=NC2(CCN(S(=O)(=O)c3cccc(Cl)c3)CC2)C(=O)N1 [Compound 8, 8-(3-chloro-benzenesulfonyl)-2-methyl-1,3,8-triaza-spiro[4.5]dec-1-en-4-one] |
| 75 | Cc1cc(C(=O)N2CCCCC2)ccc1CCS(=O)(=O)N1CCC2(CC1)N=C(c1cccc(C(F)(F)F)c1)NC2=O [Compound 380, 8-{2-[2-methyl-4-(piperidine-1-carbonyl)-phenyl]-ethanesulfonyl}-2-(3-trifluoromethyl-phenyl)-1,3,8-triaza-spiro[4.5]dec-1-en-4-one] |
| 93 | Cc1cc(C(=O)N2CCN(C)CC2)ccc1/C=C/S(=O)(=O)N1CCC2(CC1)N=C(c1cccc(OC(F)(F)F)c1)NC2=O [Compound 527, 8-{(E)-2-[2-methyl-4-(4-methyl-piperazine-1-carbonyl)-phenyl]-ethenesulfonyl}-2-(3-trifluoromethoxy-phenyl)-1,3,8-triaza-spiro[4.5]dec-1-en-4-one] |
| 28 | Cc1cc(N2C(=O)CC[C@@H]2CNC(C)C)cc(C)c1/C=C/S(=O)(=O)N1CCC2(CC1)N=C(c1cccc(OC(F)(F)F)c1)NC2=O [Compound 606, 8-((E)-2-{4-[(R)-2-(isopropylamino-methyl)-5-oxo-pyrrolidin-1-yl]-2,6-dimethyl-phenyl}-ethenesulfonyl)-2-(3-trifluoromethoxy-phenyl)-1,3,8-triaza-spiro[4.5]dec-1-en-4-one] |
| 47 | NS(=O)(=O)CCCn1ccc2c(/C=C/S(=O)(=O)N3CCC4(CC3)N=C(C3CCCCC3)NC4=O)cccc21 [Compound 484, 3-{4-[(E)-2-(2-cyclohexyl-4-oxo-1,3,8-triaza-spiro[4.5]dec-1-ene-8-sulfonyl)-vinyl]-indol-1-yl}-propane-1-sulfonic acid amide] |
| 111 | CCCCCCC(CCC)CCC1=NC2(CCN(S(=O)(=O)CCc3c(C)cc(N(C)C(N)=O)cc3C)CC2)C(=O)N1 (stereo not shown) [Compound 1353, 1-(3,5-dimethyl-4-{2-[4-oxo-2-(3-propyl-nonyl)-1,3,8-triaza-spiro[4.5]dec-1-ene-8-sulfonyl]-ethyl}-phenyl)-1-methyl-urea] |
| 116 | Cc1cc(N(C)C(N)=O)cc(C)c1CCS(=O)(=O)N1CCC2(CC1)N=C(C1CCC(=C(F)F)CC1)NC2=O (stereo not shown) [Compound 1059, 1-(4-{2-[2-(4-Difluoromethylene-cyclohexyl)-4-oxo-1,3,8-triaza-spiro[4.5]dec-1-ene-8-sulfonyl]-ethyl}-3,5-dimethyl-phenyl)-1-methyl-urea] |
| 51 | Cc1cc(C(=O)N2CCC(C)(O)CC2)cc(C)c1/C=C/S(=O)(=O)N1CCC2(CC1)N=C(c1cc(OCC(F)(F)C(F)F)cc(C(F)(F)F)c1)NC2=O [Compound 1226, 8-{(E)-2-[4-(4-hydroxy-4-methyl-piperidine-1-carbonyl)-2,6-dimethyl-phenyl]-ethenesulfonyl}-2-[3-(2,2,3,3-tetrafluoro-propoxy)-5-trifluoromethyl-phenyl]-1,3,8-triaza-spiro[4.5]dec-1-en-4-one] |
| 96 | Cc1cc(C(=O)N2CCC(O)(CF)CC2)cc(C)c1/C=C/S(=O)(=O)N1CCC2(CC1)N=C(c1ccc(C(F)(F)C(F)(F)F)cc1)NC2=O [Compound 1244, 8-{(E)-2-[4-(4-fluoromethyl-4-hydroxy-piperidine-1-carbonyl)-2,6-dimethyl-phenyl]-ethenesulfonyl}-2-(4-pentafluoroethyl-phenyl)-1,3,8-triaza-spiro[4.5]dec-1-en-4-one] |
| 64 | Cc1cc(C(=O)N2CC(O)C2)ccc1CCS(=O)(=O)N1CCC2(CC1)N=C(c1cccc(C(F)(F)F)c1)NC2=O [Compound 377, 8-{2-[4-(3-hydroxy-azetidine-1-carbonyl)-2-methyl-phenyl]-ethanesulfonyl}-2-(3-trifluoromethyl-phenyl)-1,3,8-triaza-spiro[4.5]dec-1-en-4-one] |
